The source of these data is patent US10414763B2 (CANCER RESEARCH TECHNOLOGY LIMITED, priority 2014, dated 2019).

The assay concerns the target T1, full-length human PKCι (Homo sapiens, UniProt P41743).
T1 construct: Recombinant, full-length human PKCι expressed in Sf21 insect cells is also commercially available; purchased EMD Millipore; host or cells: Sf21 insect cells (baculovirus)
T1 sequence (P41743 1-596): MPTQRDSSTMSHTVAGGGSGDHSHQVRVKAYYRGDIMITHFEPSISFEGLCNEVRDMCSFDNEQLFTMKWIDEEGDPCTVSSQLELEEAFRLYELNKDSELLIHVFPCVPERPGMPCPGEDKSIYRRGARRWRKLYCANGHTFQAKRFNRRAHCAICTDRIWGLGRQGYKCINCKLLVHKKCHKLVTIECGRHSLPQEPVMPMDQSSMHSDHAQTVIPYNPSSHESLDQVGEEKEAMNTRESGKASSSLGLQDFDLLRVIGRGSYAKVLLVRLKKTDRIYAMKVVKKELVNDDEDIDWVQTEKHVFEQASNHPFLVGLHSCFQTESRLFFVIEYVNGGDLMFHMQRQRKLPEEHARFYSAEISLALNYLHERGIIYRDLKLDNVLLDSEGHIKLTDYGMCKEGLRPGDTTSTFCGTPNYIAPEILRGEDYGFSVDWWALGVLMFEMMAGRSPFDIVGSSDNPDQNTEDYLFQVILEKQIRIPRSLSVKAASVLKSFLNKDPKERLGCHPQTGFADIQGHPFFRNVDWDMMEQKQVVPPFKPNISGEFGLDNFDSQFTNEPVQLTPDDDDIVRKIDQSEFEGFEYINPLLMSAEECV
Kind of assay: PKCι IC50 IMAP fluorescence polarisation assay, full-length enzyme, 150 μM ATP. The note with it: read-out: IC50 in IMAP assay against full length PKCi at 150 μM ATP. It is filed as biochemical. In outline: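 IMAP fluorescence polarisation kinase assay: 15 pM baculovirus-expressed human PKCiota with 100 nM FAM-pseudosubstrate peptide and 150 μM ATP, 1 h at 25 °C. IMAP detection reagent then 2 h at 25 °C before FP measurement. Inhibition referenced to no-compound and no-enzyme controls for IC50 fitting.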
For orientation: In fluorescence polarisation assays a small probe gives low polarisation when free and higher when bound to something large.

Where only a bound is given, the exact number is not on record here.

On to `Cc1cnc(F)c(-c2cc3c(-c4nc(N[C@H]5CCNCC5(C)C)c5c(C6CC6)cncc5n4)ccnc3[nH]2)c1` [Example 364, {5-Cyclopropyl-2-[2-(2-fluoro-5-methyl-pyridin-3-yl)-1H-pyrrolo[2,3-b]pyridin-4-yl]-pyrido[3,4-d]pyrimidin-4-yl}-((S)-3,3-dimethyl-piperidin-4-yl)-amine], for which the IC50 is less than 100 nM.

Consider `C[C@H]1CNCC[C@H]1Nc1nc(-c2ccnc3[nH]c4ccccc4c23)nc2cncc(C(F)(F)F)c12` (racemic) [Example 351, rac-(3S,4R)-3-Methyl-piperidin-4-yl)-[2-(9H-pyrido[2,3-b]indol-4-yl)-5-trifluoromethyl-pyrido[3,4-d]pyrimidin-4-yl]-amine], for which the IC50 was in the range of 100 to 1000 nM.

Regarding `CC1(C)CNCCC1Nc1nc(-c2ccnc(Nc3cc(C(F)(F)F)ccn3)c2)nc2cncc(C3CC3)c12` (centres unmarked) [Example 51, {5-Cyclopropyl-2-[2-(4-trifluoromethyl-pyridin-2-ylamino)-pyridin-4-yl]-pyrido[3,4-d]pyrimidin-4-yl}-(3,3-dimethyl-piperidin-4-yl)-amine], the concentration for half-maximal inhibition (IC50) is less than 100 nM.

For the compound `Fc1cccc(Nc2cc(-c3nc(N4CCOC5CNCC54)c4c(C5CC5)cncc4n3)ccn2)n1` (centres unmarked) [Example 201, {4-[5-Cyclopropyl-4-(hexahydro-pyrrolo[3,4-b][1,4]oxazin-4-yl)-pyrido[3,4-d]pyrimidin-2-yl]-pyridin-2-yl}-(6-fluoro-pyridin-2-yl)-amine], the IC50 was less than 100 nM.

In the case of `c1ccc2c(c1)[nH]c1nccc(-c3nc(N4CCC5NCCC54)c4c(C5CCC5)cncc4n3)c12` (centres unmarked) [Example 59, 4-[5-Cyclobutyl-4-(hexahydro-pyrrolo[3,2-b]pyrrol-1-yl)-pyrido[3,4-d]pyrimidin-2-yl]-9H-pyrido[2,3-b]indole], the IC50 is less than 100 nM.

Regarding `N[C@@H]1CN(c2nc(-c3ccnc4[nH]c5ccccc5c34)nc3cncc(C4CCC4)c23)C[C@H]1O` (racemic) [Example 343, rac-(3R,4R)-4-Amino-1-[5-cyclobutyl-2-(9H-pyrido[2,3-b]indol-4-yl)-pyrido[3,4-d]pyrimidin-4-yl]-pyrrolidin-3-ol], the IC50 was 100 to 1000 nM.

`CC1(C)CNCC[C@@H]1Nc1nc(-c2ccnc(Nc3nc4ccccn4n3)c2)nc2cncc(C3CC3)c12` [Example 241, [5-Cyclopropyl-2-[2-([1,2,4]triazolo[1,5-a]pyridin-2-ylamino)-pyridin-4-yl]-pyrido[3,4-d]pyrimidin-4-yl}-((S)-3,3-dimethyl-piperidin-4-yl)-amine]: the IC50 was less than 100 nM.

Take `CCSc1cc2c(-c3nc(N4CCNCC4)c4c(C5CC5)cncc4n3)ccnc2[nH]1` [Example 134, 5-Cyclopropyl-2-(2-ethylsulfanyl-1H-pyrrolo[2,3-b]pyridin-4-yl)-4-piperazin-1-yl-pyrido[3,4-d]pyrimidine]: the IC50 is less than 100 nM.

Consider `CC1(C)CNCC[C@@H]1Nc1nc(-c2ccnc(Nc3ccc(F)cn3)c2)nc2cncc(C3CCC3)c12` [Example 389, {5-Cyclobutyl-2-[2-(5-fluoropyridin-2-ylamino)-pyridin-4-yl]-pyrido[3,4-d]pyrimidin-4-yl}-((S)-3,3-dimethyl-piperidin-4-yl)-amine], for which the IC50 was less than 100 nM.

Consider `C[C@H]1C[C@@H](Nc2nc(-c3ccnc(Nc4nc(F)ccc4F)c3)nc3cncc(C4CC4)c23)CCN1` (racemic) [Example 225, (±)-{5-Cyclopropyl-2-[2-(3,6-difluoro-pyridin-2-ylamino)-pyridin-4-yl]-pyrido[3,4-d]pyrimidin-4-yl}-((2,4-cis)-2-methyl-piperidin-4-yl)-amine], for which the IC50 was less than 100 nM.

For `Clc1cc2c(-c3nc(N4CCNCC4)c4c(C5CCC5)cncc4n3)ccnc2[nH]1` [Example 130, 2-(2-Chloro-1H-pyrrolo[2,3-b]pyridin-4-yl)-5-cyclobutyl-4-piperazin-1-yl-pyrido[3,4-d]pyrimidine], the IC50 is less than 100 nM.

For orientation: IC50 means the point on the concentration scale where inhibition reaches its midpoint.
